Test results taken from PubChem BioAssay AID2060502 (Molecular Pharmacology Branch, DTP, NCI, 2025).
Values joined by “and” are separate entries in the source; they are usually repeats but may differ in a detail not shown here. Equal entries are not always repeated.

Tested on: 885724-159-R-J1-PDC complex spheroid viability
Experiment: Anticancer human tumor 885724-159-R-J1-PDC patient-derived pancreatic adenocarcinoma cell line growth inhibition [GQUAD]
Details: for viability, T/C: stronger effect = lower value
Excerpt: DNA G-quadruplex Stabilizer Agents in Combinations in Complex Spheroids
A high-throughput screen of multi-cell type tumor spheroids was designed to identify active combinations of DNA G-quadruplex stabilizer agents and targeted small molecules. Complex spheroids include a stromal component modeled by human endothelial cells (HUVEC) and fibroblasts modeled by human mesenchymal stem cells (MSCs). The concentration ranges selected for each drug and investigational agent were based upon clinically achievable concentrations if the clinical Cmax of the agent was known.
Compounds. The drugs and investigational agents: pidnarulex (CX-5461; NSC782164), APTO-253 (NSC789042), BRACO-19 (NSC847499), peposertib (NSC802822), ceralasertib (NSC780249), elimusertib (NSC800525), camonsertib (NSC841442), AZD-1390 (NSC803789), olaparib (NSC753686), talazoparib (NSC767125), ART-558 (NSC835418), sotorasib (NSC818433), MRTX-1133 (NSC836407), SN-38 (NSC673596), topotecan (NSC609699), etoposide (NSC141540), doxorubicin (NSC123127), gemcitabine (NSC613327), 5-fluorouracil (NSC19893), paclitaxel (NSC125973), vemurafenib (NSC761431), panobinostat (NSC761190), R-306465 (JNJ-16241199; NSC773264), adavosertib (NSC754352), TP-3654 (NSC805149), carboplatin (NSC241240), KSQ-4279 (NSC840948), and staurosporine (NSC755774) were obtained from the National Cancer Institute (NCI) Developmental Therapeutics Program Chemical Repository (34). The FDA-approved anticancer drug set is available from the NCI Developmental Therapeutics Program. […] The stock solutions were prepared in dimethyl sulfoxide (DMSO, Sigma-Aldrich, St. Louis, MO, cat. D2650) at 800-fold the tested concentration and stored at -70 degrees C prior to their use. All drugs and investigational agents were tested over a range starting from a high concentration at or near the clinical Cmax and decreasing in half-log increments. If the clinical Cmax for an agent had not been determined, the highest concentration tested was 10 microM.
2.3 Cell Culture. All cells were maintained in an incubator at 37 degrees C and 5% CO2 with 95% humidity. The PDC lines were cultured according to standard operating procedures established by the NCI PDMR. All PDCs were thawed and cultured in Matrigel-coated flasks prepared with a working solution of 1X Ham's F-12 nutrient mix, without supplementation (Invitrogen, cat. 11765054), 100 U/mL penicillin-streptomycin (Invitrogen, cat. 15140122), and 2.5% Matrigel (Corning Inc., cat. 354248) for the first three passages. The 857933-349-R-J2-PDC line was cultured in 6C/Colon 1B media, which includes advanced DMEM/F-12 (Thermo Fisher Scientific, cat. 12634028), 10 mM HEPES (Thermo Fisher Scientific, cat. 15630080), 1X GlutaMAX supplement (Thermo Fisher Scientific, cat. 35050061), 0.1 mg/mL primocin (InvivoGen, cat. ant-pm-2), 10% defined fetal bovine serum, heat inactivated (HyClone Laboratories Inc., cat. SH30070.03HI), 50% L-WRN conditioned media (ATCC, cat. CRL-3276), 1.25 mM N-Acetyl-L-cysteine (Sigma-Aldrich, cat. A9165), 10 mM nicotinamide (Sigma-Aldrich, cat. N0636), 1X B-27 supplement (Thermo Fisher Scientific, cat. 17504044), 1X N-2 supplement (Thermo Fisher Scientific, cat. 17502048), 10 microM Y-27632 dihydrochloride (Tocris Bioscience, cat. 1254), and 50 ng/mL human EGF recombinant protein (Thermo Fisher Scientific, cat. PHG0311). The 485176-168-R4-J1-PDC line was cultured in Panc media, which includes all 6C/Colon 1B media components plus 100 ng/mL human FGF-10 (Thermo Fisher Scientific, cat. 100-26), 500 nM SB-431542 (Selleckchem, cat. S1067), and gastrin (Tocris, cat. 3006).
[…]
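Note: spheroids exposed to agents for seven days before readout.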
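Throughout, for viability, T/C: percent of vehicle control viability where 100% = DMSO wells.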

`CC1COCCN1c1cc(C2(S(C)(=N)=O)CC2)nc(-c2ccnc3[nH]ccc23)n1` (centres undefined) + Cc1cnc(CNC(=O)c2c(=O)c3ccc(N4CCCN(C)CC4)nc3n3c2sc2ccccc23)cn1 was tested, and the IC50 (curve of first compound, second compound 0.0316 µM) was > 10 µM, the IC50 (curve of first compound, second compound 0.1 µM) was > 10 µM and the IC50 (curve of first compound, second compound 0.316 µM) was > 10 µM. For the same molecule, the IC50 (curve of first compound, second compound 1 µM) was > 10 µM, the IC50 (curve of first compound, second compound 3.16 µM) was > 10 µM and the IC50 (curve of first compound, second compound 10 µM) was > 10 µM. For the same molecule, the viability, T/C (second compound 0.0316 µM, first compound 0.0316 µM) was 101%, the viability, T/C (second compound 0.0316 µM, first compound 0.1 µM) was 105% and the viability, T/C (second compound 0.0316 µM, first compound 0.316 µM) was 110%. It also gave a viability, T/C (second compound 0.0316 µM, first compound 1 µM) of 106%, a viability, T/C (second compound 0.0316 µM, first compound 3.16 µM) of 81.5% and a viability, T/C (second compound 0.0316 µM, first compound 10 µM) of 92.3%. It also gave a viability, T/C (second compound 0.1 µM, first compound 0.0316 µM) of 118%, a viability, T/C (second compound 0.1 µM, first compound 0.1 µM) of 105% and a viability, T/C (second compound 0.1 µM, first compound 0.316 µM) of 116%. The viability, T/C (second compound 0.1 µM, first compound 1 µM) was 108%, the viability, T/C (second compound 0.1 µM, first compound 3.16 µM) was 103% and the viability, T/C (second compound 0.1 µM, first compound 10 µM) was 91.2%. For the same molecule, the viability, T/C (second compound 0.316 µM, first compound 0.0316 µM) was 114%, the viability, T/C (second compound 0.316 µM, first compound 0.1 µM) was 99% and the viability, T/C (second compound 0.316 µM, first compound 0.316 µM) was 98.3%. It also gave a viability, T/C (second compound 0.316 µM, first compound 1 µM) of 87.3%, a viability, T/C (second compound 0.316 µM, first compound 3.16 µM) of 86% and a viability, T/C (second compound 0.316 µM, first compound 10 µM) of 86.7%. It also gave a viability, T/C (second compound 1 µM, first compound 0.0316 µM) of 93.5%, a viability, T/C (second compound 1 µM, first compound 0.1 µM) of 78.5% and a viability, T/C (second compound 1 µM, first compound 0.316 µM) of 81.6%. For the same molecule, the viability, T/C (second compound 1 µM, first compound 1 µM) was 87.2%, the viability, T/C (second compound 1 µM, first compound 3.16 µM) was 90.7% and the viability, T/C (second compound 1 µM, first compound 10 µM) was 67.1%. For the same molecule, the viability, T/C (second compound 3.16 µM, first compound 0.0316 µM) was 82%, the viability, T/C (second compound 3.16 µM, first compound 0.1 µM) was 80.4% and the viability, T/C (second compound 3.16 µM, first compound 0.316 µM) was 70.5%. The viability, T/C (second compound 3.16 µM, first compound 1 µM) was 79.8%, the viability, T/C (second compound 3.16 µM, first compound 3.16 µM) was 83% and the viability, T/C (second compound 3.16 µM, first compound 10 µM) was 60.2%. For the same molecule, the viability, T/C (second compound 10 µM, first compound 0.0316 µM) was 72.8%, the viability, T/C (second compound 10 µM, first compound 0.1 µM) was 73.4% and the viability, T/C (second compound 10 µM, first compound 0.316 µM) was 72.6%. For the same molecule, the viability, T/C (second compound 10 µM, first compound 1 µM) was 72.1%, the viability, T/C (second compound 10 µM, first compound 3.16 µM) was 78% and the viability, T/C (second compound 10 µM, first compound 10 µM) was 59.5%.
`CCc1c2c(nc3ccc(O)cc13)-c1cc3c(c(=O)n1C2)COC(=O)[C@]3(O)CC` was tested, and the viability, T/C (compound 0.000999 µM) was 85.3% and 91.4% and 93.3%, the viability, T/C (compound 0.00316 µM) was 87.5% and 81.8% and 85.2% and the viability, T/C (compound 0.00999 µM) was 63.2% and 62.8% and 77.4%. For the same molecule, the viability, T/C (compound 0.0316 µM) was 66.7% and 67.3% and 62.1%, the viability, T/C (compound 0.0999 µM) was 60.3% and 45.8% and 59% and the viability, T/C (compound 0.316 µM) was 17.2% and 8.7% and 16.4%. For the same molecule, the IC50 (curve of compound) was 0.11 µM and 0.0643 µM and 0.101 µM.
